Where two headings read alike, the source gives them in different places.
Key:
[1] = system: Chlorella sp. HS26
Protocol: Cultures of Chlorella sp. […] 100 mL volume cultures were prepared in 250 mL flasks, and cultured at a pH of 7.5, temperature of 25° C., a shaking frequency of 100 rpm, and a light intensity of 100 μM photon/m^2 s for 7 days (168 hours).

[2] = system: Chlorella sp. HS26; details: for Cell Dry Weight of Chlorella: 2.4 g/L
Protocol: This experiment was conducted to determine the effect of different culture medium pH levels on the growth of Chlorella sp. HS26 at a constant culture medium acetate concentration. Duplicate 100 ml flasks of axenic cultures of Chlorella were adjusted to initial pH levels of 2.5, 3.5, 4.5, 5.5, 6.5, 7.0, 7.5, 8.5, 9.5, and 10.5. The culture pH was adjusted using either hydrochloric acid (HCl) or sodium hydroxide (NaOH). […] Samples of the flask culture were taken initially and every other day over a six day period (144 hours).

[3] = system: Aurantiochytrium sp. HS399
Protocol: Cultures of Aurantiochytrium sp. […] 100 mL volume cultures were prepared in 250 mL flasks, and cultured at a pH of 7.0, temperature of 27° C., a shaking frequency of 180 rpm, in the dark for 5 days (120 hours). The cultures were inoculated at the same cell density.

[4] = system: Aurantiochytrium sp. HS399; details: for Cell Dry Weight of Aurantiochytrium: 2 g/L Na Acetate
Protocol: This experiment was conducted to determine the effect of different culture pH levels on the growth of Aurantiochytrium sp. HS399. Duplicate 100 ml flasks of axenic cultures of Aurantiochytrium were adjusted to initial pH levels of 4, 5, 6, 7, and 8. The culture pH was adjusted using either hydrochloric acid (HCl) or potassium hydroxide (KOH). […] Samples of the flask culture were taken initially and every other day over a five-day period (120 hours).

SMILES: CC(=O)[O-].[Na+] [Sodium Acetate, sodium acetate]
- growth ([1]; 2.5 g/L sodium acetate): 0.620 g/L day
- time to reach exponential phase ([1]; 2.5 g/L sodium acetate): 48 h
- growth ([1]; 5 g/L sodium acetate): 0.065 g/L day
- Chlorella dry weights ([1]; sodium acetate 2.5 g/L, 0 h): 0.12 g/L
- Chlorella dry weights ([1]; sodium acetate 2.5 g/L, 24 h): 0.23 g/L
- Chlorella dry weights ([1]; sodium acetate 2.5 g/L, 48 h): 0.85 g/L
- Chlorella dry weights ([1]; sodium acetate 2.5 g/L, 72 h): 1.10 g/L
- Chlorella dry weights ([1]; sodium acetate 2.5 g/L, 144 h): 2.72 g/L
- Chlorella dry weights ([1]; sodium acetate 2.5 g/L, 168 h): 3.23 g/L
- Chlorella dry weights ([1]; sodium acetate 5 g/L, 0 h): 0.12 g/L
- Chlorella dry weights ([1]; sodium acetate 5 g/L, 24 h): 0.19 g/L
- Chlorella dry weights ([1]; sodium acetate 5 g/L, 48 h): 0.25 g/L
- Chlorella dry weights ([1]; sodium acetate 5 g/L, 72 h): 0.55 g/L
- Chlorella dry weights ([1]; sodium acetate 5 g/L, 144 h): 1.89 g/L
- Chlorella dry weights ([1]; sodium acetate 5 g/L, 168 h): 2.41 g/L
- Chlorella dry weights ([1]; sodium acetate 10 g/L, 0 h): 0.12 g/L
- Chlorella dry weights ([1]; sodium acetate 10 g/L, 24 h): 0.13 g/L
- Chlorella dry weights ([1]; sodium acetate 10 g/L, 48 h): 0.16 g/L
- Chlorella dry weights ([1]; sodium acetate 10 g/L, 72 h): 0.11 g/L
- Chlorella dry weights ([1]; sodium acetate 10 g/L, 144 h): 0.09 g/L
- Chlorella dry weights ([1]; sodium acetate 10 g/L, 168 h): 0.00 g/L
- Chlorella dry weights ([1]; sodium acetate 20 g/L, 0 h): 0.12 g/L
- Chlorella dry weights ([1]; sodium acetate 20 g/L, 24 h): 0.16 g/L
- Chlorella dry weights ([1]; sodium acetate 20 g/L, 48 h): 0.13 g/L
- Chlorella dry weights ([1]; sodium acetate 20 g/L, 72 h): 0.12 g/L
- Chlorella dry weights ([1]; sodium acetate 20 g/L, 144 h): 0.07 g/L
- Chlorella dry weights ([1]; sodium acetate 20 g/L, 168 h): 0.00 g/L
- Chlorella dry weights ([1]; sodium acetate 30 g/L, 0 h): 0.12 g/L
- Chlorella dry weights ([1]; sodium acetate 30 g/L, 24 h): 0.14 g/L
- Chlorella dry weights ([1]; sodium acetate 30 g/L, 48 h): 0.11 g/L
- Chlorella dry weights ([1]; sodium acetate 30 g/L, 72 h): 0.09 g/L
- Chlorella dry weights ([1]; sodium acetate 30 g/L, 144 h): 0.08 g/L
- Chlorella dry weights ([1]; sodium acetate 30 g/L, 168 h): 0.00 g/L
- Chlorella dry weights ([1]; sodium acetate 40 g/L, 0 h): 0.12 g/L
- Chlorella dry weights ([1]; sodium acetate 40 g/L, 24 h): 0.11 g/L
- Chlorella dry weights ([1]; sodium acetate 40 g/L, 48 h): 0.09 g/L
- Chlorella dry weights ([1]; sodium acetate 40 g/L, 72 h): 0.10 g/L
- Chlorella dry weights ([1]; sodium acetate 40 g/L, 144 h): 0.09 g/L
- Chlorella dry weights ([1]; sodium acetate 40 g/L, 168 h): 0.00 g/L
- acetate concentration tolerance ([1]; sodium acetate in the culture, pH 7.5): approximately 7.5 g/L
- cell dry weight over time ([2]; 2.4 g/L sodium acetate, pH of 5.5 or lower): did not increase over time
- Cell Dry Weight of Chlorella ([2]; initial pH 2.5, 0 h): 0.6 g/L
- Cell Dry Weight of Chlorella ([2]; initial pH 2.5, 24 h): 0.5 g/L
- Cell Dry Weight of Chlorella ([2]; initial pH 2.5, 48 h): 0.5 g/L
- Cell Dry Weight of Chlorella ([2]; initial pH 3.5, 0 h): 0.6 g/L
- Cell Dry Weight of Chlorella ([2]; initial pH 3.5, 24 h): 0.5 g/L
- Cell Dry Weight of Chlorella ([2]; initial pH 3.5, 48 h): 0.5 g/L
- Cell Dry Weight of Chlorella ([2]; initial pH 4.5, 0 h): 0.6 g/L
- Cell Dry Weight of Chlorella ([2]; initial pH 4.5, 24 h): 0.5 g/L
- Cell Dry Weight of Chlorella ([2]; initial pH 4.5, 48 h): 0.4 g/L
- Cell Dry Weight of Chlorella ([2]; initial pH 5.5, 0 h): 0.6 g/L
- Cell Dry Weight of Chlorella ([2]; initial pH 5.5, 24 h): 0.6 g/L
- Cell Dry Weight of Chlorella ([2]; initial pH 5.5, 48 h): 0.6 g/L
- Cell Dry Weight of Chlorella ([2]; initial pH 5.5, 96 h): 0.4 g/L
- Cell Dry Weight of Chlorella ([2]; initial pH 6.5, 0 h): 0.6 g/L
- Cell Dry Weight of Chlorella ([2]; initial pH 6.5, 24 h): 0.8 g/L
- Cell Dry Weight of Chlorella ([2]; initial pH 6.5, 48 h): 1.8 g/L
- Cell Dry Weight of Chlorella ([2]; initial pH 6.5, 96 h): 4.3 g/L
- Cell Dry Weight of Chlorella ([2]; initial pH 6.5, 144 h): 6.0 g/L
- Cell Dry Weight of Chlorella ([2]; initial pH 7.5, 0 h): 0.6 g/L
- Cell Dry Weight of Chlorella ([2]; initial pH 7.5, 24 h): 0.6 g/L
- Cell Dry Weight of Chlorella ([2]; initial pH 7.5, 48 h): 1.7 g/L
- Cell Dry Weight of Chlorella ([2]; initial pH 7.5, 96 h): 4.4 g/L
- Cell Dry Weight of Chlorella ([2]; initial pH 7.5, 144 h): 6.0 g/L
- Cell Dry Weight of Chlorella ([2]; initial pH 8.5, 0 h): 0.6 g/L
- Cell Dry Weight of Chlorella ([2]; initial pH 8.5, 24 h): 0.8 g/L
- Cell Dry Weight of Chlorella ([2]; initial pH 8.5, 48 h): 2.4 g/L
- Cell Dry Weight of Chlorella ([2]; initial pH 8.5, 96 h): 4.2 g/L
- Cell Dry Weight of Chlorella ([2]; initial pH 8.5, 144 h): 6.0 g/L
- Cell Dry Weight of Chlorella ([2]; initial pH 9.5, 0 h): 0.6 g/L
- Cell Dry Weight of Chlorella ([2]; initial pH 9.5, 24 h): 0.8 g/L
- Cell Dry Weight of Chlorella ([2]; initial pH 9.5, 48 h): 1.2 g/L
- Cell Dry Weight of Chlorella ([2]; initial pH 9.5, 96 h): 4.3 g/L
- Cell Dry Weight of Chlorella ([2]; initial pH 9.5, 144 h): 6.1 g/L
- Cell Dry Weight of Chlorella ([2]; initial pH 10.5, 0 h): 0.6 g/L
- Cell Dry Weight of Chlorella ([2]; initial pH 10.5, 24 h): 0.9 g/L
- Cell Dry Weight of Chlorella ([2]; initial pH 10.5, 48 h): 1.4 g/L
- Cell Dry Weight of Chlorella ([2]; initial pH 10.5, 96 h): 4.3 g/L
- Cell Dry Weight of Chlorella ([2]; initial pH 10.5, 144 h): 6.1 g/L
- growth ([3]; concentrations of sodium acetate below 100 g/L): grew well
- Cell Dry Weight of Aurantiochytrium ([3]; sodium acetate 5 g/L, 0 h): 2.7 g/L
- Cell Dry Weight of Aurantiochytrium ([3]; sodium acetate 5 g/L, 24 h): 8.01 g/L
- Cell Dry Weight of Aurantiochytrium ([3]; sodium acetate 5 g/L, 40 h): 8.13 g/L
- Cell Dry Weight of Aurantiochytrium ([3]; sodium acetate 5 g/L, 72 h): 7.49 g/L
- Cell Dry Weight of Aurantiochytrium ([3]; sodium acetate 5 g/L, 96 h): 7.38 g/L
- Cell Dry Weight of Aurantiochytrium ([3]; sodium acetate 5 g/L, 120 h): 7.6 g/L
- Cell Dry Weight of Aurantiochytrium ([3]; sodium acetate 10 g/L, 0 h): 2.7 g/L
- Cell Dry Weight of Aurantiochytrium ([3]; sodium acetate 10 g/L, 24 h): 8.29 g/L
- Cell Dry Weight of Aurantiochytrium ([3]; sodium acetate 10 g/L, 40 h): 9.69 g/L
- Cell Dry Weight of Aurantiochytrium ([3]; sodium acetate 10 g/L, 72 h): 10.35 g/L
- Cell Dry Weight of Aurantiochytrium ([3]; sodium acetate 10 g/L, 96 h): 10 g/L
- Cell Dry Weight of Aurantiochytrium ([3]; sodium acetate 10 g/L, 120 h): 10.9 g/L
- Cell Dry Weight of Aurantiochytrium ([3]; sodium acetate 20 g/L, 0 h): 2.7 g/L
- Cell Dry Weight of Aurantiochytrium ([3]; sodium acetate 20 g/L, 24 h): 7.35 g/L
- Cell Dry Weight of Aurantiochytrium ([3]; sodium acetate 20 g/L, 40 h): 10.45 g/L
- Cell Dry Weight of Aurantiochytrium ([3]; sodium acetate 20 g/L, 72 h): 13.7 g/L
- Cell Dry Weight of Aurantiochytrium ([3]; sodium acetate 20 g/L, 96 h): 13.11 g/L
- Cell Dry Weight of Aurantiochytrium ([3]; sodium acetate 20 g/L, 120 h): 13.55 g/L
- Cell Dry Weight of Aurantiochytrium ([3]; sodium acetate 40 g/L, 0 h): 2.7 g/L
- Cell Dry Weight of Aurantiochytrium ([3]; sodium acetate 40 g/L, 24 h): 7.06 g/L
- Cell Dry Weight of Aurantiochytrium ([3]; sodium acetate 40 g/L, 40 h): 11.84 g/L
- Cell Dry Weight of Aurantiochytrium ([3]; sodium acetate 40 g/L, 72 h): 15.78 g/L
- Cell Dry Weight of Aurantiochytrium ([3]; sodium acetate 40 g/L, 96 h): 18.9 g/L
- Cell Dry Weight of Aurantiochytrium ([3]; sodium acetate 40 g/L, 120 h): 19.65 g/L
- Cell Dry Weight of Aurantiochytrium ([3]; sodium acetate 100 g/L, 0 h): 2.7 g/L
- Cell Dry Weight of Aurantiochytrium ([3]; sodium acetate 100 g/L, 24 h): 1.7 g/L
- Cell Dry Weight of Aurantiochytrium ([3]; sodium acetate 100 g/L, 40 h): 0.7 g/L
- acetate concentration tolerance ([3]; sodium acetate in the culture, pH 7.0): around 100 g/L
- Cell Dry Weight of Aurantiochytrium ([4]; pH 4, 0 h): 0.28 g/L
- Cell Dry Weight of Aurantiochytrium ([4]; pH 4, 24 h): 1.1 g/L
- Cell Dry Weight of Aurantiochytrium ([4]; pH 4, 48 h): 0.79 g/L
- Cell Dry Weight of Aurantiochytrium ([4]; pH 4, 72 h): 0.51 g/L
- Cell Dry Weight of Aurantiochytrium ([4]; pH 5, 0 h): 0.25 g/L
- Cell Dry Weight of Aurantiochytrium ([4]; pH 5, 24 h): 5.15 + g/L
- Cell Dry Weight of Aurantiochytrium ([4]; pH 5, 48 h): 15.2 g/L
- Cell Dry Weight of Aurantiochytrium ([4]; pH 5, 72 h): 19.4 g/L
- Cell Dry Weight of Aurantiochytrium ([4]; pH 6, 0 h): 0.18 g/L
- Cell Dry Weight of Aurantiochytrium ([4]; pH 6, 24 h): 5.1 g/L
- Cell Dry Weight of Aurantiochytrium ([4]; pH 6, 48 h): 11.55 g/L
- Cell Dry Weight of Aurantiochytrium ([4]; pH 6, 72 h): 16 g/L
- Cell Dry Weight of Aurantiochytrium ([4]; pH 7, 0 h): 0.3 g/L
- Cell Dry Weight of Aurantiochytrium ([4]; pH 7, 24 h): 12.25 g/L
- Cell Dry Weight of Aurantiochytrium ([4]; pH 7, 48 h): 10.8 g/L
- Cell Dry Weight of Aurantiochytrium ([4]; pH 7, 72 h): 15.7 g/L
- Cell Dry Weight of Aurantiochytrium ([4]; pH 8, 0 h): 0.25 g/L
- Cell Dry Weight of Aurantiochytrium ([4]; pH 8, 24 h): 9.1 g/L
- Cell Dry Weight of Aurantiochytrium ([4]; pH 8, 48 h): 8.95 g/L
- Cell Dry Weight of Aurantiochytrium ([4]; pH 8, 72 h): 12.6 g/L
- cell dry weight over time ([4]; 2 g/L sodium acetate, pH of 4): did not increase over time

Source: patent US20210284952A1, “METHODS OF APPLYING ACETATE TOXICITY AND INDUCING ACETATE UPTAKE IN MICROALGAE CULTURES” (HELIAE DEVELOPMENT LLC, priority 2016, published 2021)
